Test results reported in patent US11578087B2, “Oxaborole esters and uses thereof” (priority 2016, dated 2023).

Columns and labels:
[1] = system: T. cruzi amastigote (Td Tomato-modified) in Vero cells; test: In vitro IC50 measurement of T. cruzi amastigote killing using Td Tomato-modified T. cruzi; format: cell-based; details: Trypanosoma cruzi, 72 h, fluorescence, read-out: IC50: I Org. amastigote Growth T. cruzi 3 d
Procedure, shortened: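 IC50/IC90 came from nonlinear regression of Day 3 minus Day 0 fluorescence (544/612 nm), correcting for input parasites. Final compound concentrations spanned 5 nM–5 uM on Td Tomato T. cruzi-infected Vero cells, 72 h at 37 °C.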

[2] = system: IL3000 T. congolense (drug sensitive) strain; test: In vitro Alamar Blue 72 h drug sensitivity assay for T. congolense; format: cell-based, Trypanosoma congolense; details: Trypanosoma congolense, 72 h, bloodstream form, 69 h + 3 h Resazurin, 34° C., read-out: IC50: I Org. Growth T. congolense 3 d
Procedure, shortened: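 IC50 values derive from 11-point curves averaged over at least three independent runs, with fluorescence read at 536 nm excitation and 588 nm emission. Resazurin was added for a final 3 h after 69 h compound exposure of bloodstream forms (HMI medium, 20% bovine serum, 34° C, 5% CO2).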

Compound | IC50 [1] | IC50 [2]
Cc1c(C(=O)N[C@H](C(=O)OCc2ccc(F)cc2)C2CC2)ccc2c1B(O)OC2 [Example 6-050, 4-Fluorobenzyl (S)-2-cyclopropyl-2-(1-hydroxy-7-methyl-1,3-dihydrobenzo[c][1,2]oxaborole-6-carboxamido)acetate] | 21 to 999 nM | < 0.5 nM
Cc1c(C(=O)N[C@H](C(=O)OC2CCNCC2)C(C)C)ccc2c1B(O)OC2 [Example 6-146, Piperidin-4-yl (1-hydroxy-7-methyl-1,3-dihydrobenzo[c][1,2]oxaborole-6-carbonyl)-L-valinate] | ≥ 1000 nM | 10 to 5000 nM
Cc1c(C(=O)N[C@H](C(=O)OCC(C)(C)O)C(C)C)ccc2c1B(O)OC2 [Example 6-211, 2-hydroxy-2-methylpropyl (1-hydroxy-7-methyl-1,3-dihydrobenzo[c][1,2]oxaborole-6-carbonyl)-L-valinate] | 21 to 999 nM | 0.51 to 9.99 nM
Cc1c(C(=O)N[C@H](C(=O)OCc2cnc(N)nc2)C(C)C)ccc2c1B(O)OC2 [Example 6-225, (2-aminopyrimidin-5-yl)methyl (1-hydroxy-7-methyl-1,3-dihydrobenzo[c][1,2]oxaborole-6-carbonyl)-L-valinate] | 21 to 999 nM | 10 to 5000 nM
Cc1c(C(=O)N[C@H](C(=O)OCC(F)(F)C(F)(F)F)C(C)C)ccc2c1B(O)OC2 [Example 6-153, 2,2,3,3,3-Pentafluoropropyl (1-hydroxy-7-methyl-1,3-dihydrobenzo[c][1,2]oxaborole-6-carbonyl)-L-valinate] | ≤ 20 nM | < 0.5 nM
COCC1(COC(=O)[C@@H](NC(=O)c2ccc3c(c2C)B(O)OC3)C(C)C)CCOCC1 [Example 6-152, (4-(Methoxymethyl)tetrahydro-2H-pyran-4-yl)methyl (1-hydroxy-7-methyl-1,3-dihydrobenzo[c][1,2]oxaborole-6-carbonyl)-L-valinate] | 21 to 999 nM | < 0.5 nM
Cc1c(C(=O)N[C@H](C(=O)OCc2cccc(CN3CCOCC3)c2)C(C)C)ccc2c1B(O)OC2 [Example 6-083, 3-(Morpholinomethyl)benzyl (1-hydroxy-7-methyl-1,3-dihydrobenzo[c][1,2]oxaborole-6-carbonyl)-L-valinate] | ≤ 20 nM | < 0.5 nM
CCOc1c(C(=O)N[C@H](C(=O)OCc2ccccc2)C(C)C)ccc2c1B(O)OC2 [Example 6-192, Benzyl (7-ethoxy-1-hydroxy-1,3-dihydrobenzo[c][1,2]oxaborole-6-carbonyl)-L-valinate] | ≥ 1000 nM | 0.51 to 9.99 nM
Cc1c(C(=O)N[C@H](C(=O)OCc2ccc(C(F)(F)F)nc2)C(C)C)ccc2c1B(O)OC2 [Example 6-168, (6-(Trifluoromethyl)pyridin-3-yl)methyl (1-hydroxy-7-methyl-1,3-dihydrobenzo[c][1,2]oxaborole-6-carbonyl)-L-valinate] | ≤ 20 nM | < 0.5 nM
Cc1c(C(=O)N[C@H](C(=O)OCc2ccc(C(=O)NCCN(C)C)cc2)C(C)C)ccc2c1B(O)OC2 [Example 6-103, 4-((2-(Dimethylamino)ethyl)carbamoyl)benzyl (1-hydroxy-7-methyl-1,3-dihydrobenzo[c][1,2]oxaborole-6-carbonyl)-L-valinate] | ≥ 1000 nM | 10 to 5000 nM
Cc1c(C(=O)N[C@H](C(=O)OCC2CCCCC2)C(C)C)ccc2c1B(O)OC2 [Example 6-119, Cyclohexylmethyl (1-hydroxy-7-methyl-1,3-dihydrobenzo[c][1,2]oxaborole-6-carbonyl)-L-valinate] | ≤ 20 nM | < 0.5 nM
Cc1c(C(=O)N[C@H](C(=O)OCCN2CCCC2=O)C(C)C)ccc2c1B(O)OC2 [Example 6-212, 2-(2-oxopyrrolidin-1-yl)ethyl (1-hydroxy-7-methyl-1,3-dihydrobenzo[c][1,2]oxaborole-6-carbonyl)-L-valinate] | 21 to 999 nM | 10 to 5000 nM
Cc1c(C(=O)N[C@H](C(=O)OCc2ccc(F)c(F)c2)C(C)(C)O)ccc2c1B(O)OC2 [Example 6-098, 3,4-Difluorobenzyl (S)-3-hydroxy-2-(1-hydroxy-7-methyl-1,3-dihydrobenzo[c][1,2]oxaborole-6-carboxamido)-3-methylbutanoate] | ≤ 20 nM | < 0.5 nM
CCCc1c(C(=O)N[C@H](C(=O)OCc2ccccc2)C(C)C)ccc2c1B(O)OC2 [Example 6-065, Benzyl (1-hydroxy-7-propyl-1,3-dihydrobenzo[c][1,2]oxaborole-6-carbonyl)-L-valinate] | 21 to 999 nM | 0.51 to 9.99 nM
Cc1c(C(=O)N[C@H](C(=O)OCc2cncc(N3CCN(C)CC3)n2)C(C)C)ccc2c1B(O)OC2 [Example 6-204, (6-(4-methylpiperazin-1-yl)pyrazin-2-yl)methyl (1-hydroxy-7-methyl-1,3-dihydrobenzo[c][1,2]oxaborole-6-carbonyl)-L-valinate] | ≤ 20 nM | < 0.5 nM
CC(C)c1c(C(=O)N[C@H](C(=O)OCc2ccccc2)C(C)C)ccc2c1B(O)OC2 [Example 6-063, Benzyl (1-hydroxy-7-isopropyl-1,3-dihydrobenzo[c][1,2]oxaborole-6-carbonyl)-L-valinate] | ≥ 1000 nM | 0.51 to 9.99 nM
Cc1c(C(=O)N[C@H](C(=O)OC[C@@H](O)CO)C(C)C)ccc2c1B(O)OC2 [Example 6-148, (S)-2,3-dihydroxypropyl (1-hydroxy-7-methyl-1,3-dihydrobenzo[c][1,2]oxaborole-6-carbonyl)-L-valinate] | ≥ 1000 nM | 10 to 5000 nM
Cc1c(C(=O)N[C@H](C(=O)OC2CCCC2)C(C)C)ccc2c1B(O)OC2 [Example 6-132, Cyclopentyl (1-hydroxy-7-methyl-1,3-dihydrobenzo[c][1,2]oxaborole-6-carbonyl)-L-valinate] | ≤ 20 nM | < 0.5 nM
Cc1c(C(=O)N[C@H](C(=O)OCc2nccc(C(F)(F)F)n2)C(C)C)ccc2c1B(O)OC2 [Example 6-203, (4-(trifluoromethyl)pyrimidin-2-yl)methyl (1-hydroxy-7-methyl-1,3-dihydrobenzo[c][1,2]oxaborole-6-carbonyl)-L-valinate] | ≤ 20 nM | < 0.5 nM
Cc1c(C(=O)N[C@H](C(=O)OCC2CCCC2)C(C)(C)O)ccc2c1B(O)OC2 [Example 6-228, Cyclopentylmethyl (S)-3-hydroxy-2-(1-hydroxy-7-methyl-1,3-dihydrobenzo[c][1,2]oxaborole-6-carboxamido)-3-methylbutanoate] | 21 to 999 nM | < 0.5 nM
Cc1c(C(=O)N[C@H](C(=O)OCc2ccc(F)cc2)[C@H](C)OCc2ccc(F)cc2)ccc2c1B(O)OC2 [Example 6-097, 4-Fluorobenzyl O-(4-fluorobenzyl)-N-(1-hydroxy-7-methyl-1,3-dihydrobenzo[c][1,2]oxaborole-6-carbonyl)-L-allothreoninate] | 21 to 999 nM | 0.51 to 9.99 nM
Cc1c(C(=O)N[C@H](C(=O)OCC2CCC(F)(F)CC2)C(C)C)ccc2c1B(O)OC2 [Example 6-154, (4,4-Difluorocyclohexyl)methyl (1-hydroxy-7-methyl-1,3-dihydrobenzo[c][1,2]oxaborole-6-carbonyl)-L-valinate] | ≤ 20 nM | < 0.5 nM
Cc1c(C(=O)N[C@H](C(=O)OCc2ccc(OCCCN3CCCC3)cc2)C(C)C)ccc2c1B(O)OC2 [Example 6-249, 4-(3-(Pyrrolidin-1-yl)propoxy)benzyl(1-hydroxy-7-methyl-1,3-dihydrobenzo[c][1,2]oxaborole-6-carbonyl)-L-valinate] | 21 to 999 nM | 0.51 to 9.99 nM
